Measurements taken from US12084462B2, “Spiro bicyclic inhibitors of menin-MLL interaction” (Janssen Pharmaceutica NV, priority 2016, dated 2024).
Where “and” joins values, the source holds several entries; their conditions need not be identical. Equal entries are not always repeated. Where two headings read alike, the source gives them in different places.

How the values were obtained:
[1] = molecular target: T1, menin (Homo sapiens, UniProt O00255, T541A); assay: Menin/MLL fluorescence polarization (FP) assay; type: binding
T1 sequence (O00255 with tags, fused parts or gaps T541A): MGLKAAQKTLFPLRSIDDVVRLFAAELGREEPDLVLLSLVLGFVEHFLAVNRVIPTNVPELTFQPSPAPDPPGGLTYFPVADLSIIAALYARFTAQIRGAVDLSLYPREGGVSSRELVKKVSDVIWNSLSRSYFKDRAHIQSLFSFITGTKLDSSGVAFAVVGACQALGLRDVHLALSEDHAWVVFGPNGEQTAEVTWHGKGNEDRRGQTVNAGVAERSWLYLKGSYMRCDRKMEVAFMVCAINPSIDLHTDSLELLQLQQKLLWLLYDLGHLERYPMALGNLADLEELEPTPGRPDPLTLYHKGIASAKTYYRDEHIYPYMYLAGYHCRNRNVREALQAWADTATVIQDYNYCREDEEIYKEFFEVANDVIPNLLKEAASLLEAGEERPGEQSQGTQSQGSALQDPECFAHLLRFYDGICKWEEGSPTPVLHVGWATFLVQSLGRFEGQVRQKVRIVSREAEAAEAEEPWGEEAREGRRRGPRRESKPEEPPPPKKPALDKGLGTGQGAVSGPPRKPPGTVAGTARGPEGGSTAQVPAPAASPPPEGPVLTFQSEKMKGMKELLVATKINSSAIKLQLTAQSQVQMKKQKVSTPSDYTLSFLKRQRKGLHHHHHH
Method: 1) Menin/MLL Fluorescence Polarization Assay
To a non-surface binding, black 384-well microtiter plate was added 50 nL 160× test compound in DMSO and 4 μL 2× menin in assay buffer (40 mM Tris·HCl, pH 7.5, 50 mM NaCl, 1 mM DTT and 0.001% Tween 20). After incubation of test compound and menin for 10 min at ambient temperature, 4 μL 2×FITC-MBM1 peptide (FITC-β-alanine-SARWRFPARPGT-NH2 (SEQ ID NO: 2)) in assay buffer was added, the microtiter plate centrifuged at 1000 rpm for 1 min and the assay mixtures incubated for 15 min at ambient temperature. The relative amount of menin·FITC-MBM1 complex present in an assay mixture is determined by measuring the fluorescence polarization (FP) of the FITC label with a BMG Pherastar plate reader (ex. 485 nm/em. 520 nm) at ambient temperature. The final concentrations of reagents in the binding assay are 100 nM menin, 5 nM FITC-MBM1 peptide and 0.625% DMSO in assay buffer. Dose-response titrations of test compounds are conducted using an 11 point, three-fold serial dilution scheme, starting at 31 μM.
Compound potencies were determined by first calculating % inhibition at each compound concentration according to equation 1: % inhibition=((HC−LC)−(FP^compound−LC))/(HC−LC))*100 (Eqn 1)
Where LC and HC are the FP values of the assay in the presence or absence of a saturating concentration of a compound that competes with FITC-MBM1 for binding to menin, and FP^compound is the measured FP value in the presence of the test compound. HC and LC FP values represent an average of at least 16 replicates per plate. […] 2) Proliferation Assay

[2] = system: K562; assay: Proliferation assay (spheroid assay) K562, control cell line; type: cell-based; conditions: Homo sapiens
Method: (§1) The anti-proliferative effect of menin/MLL protein/protein interaction inhibitor test compounds was assessed in human leukemia cell lines. The cell lines MV-4-11 and MOLM14 harbor MLL translocations and express the MLL fusion proteins MLL-AF4 and MLL-AF9, respectively, as well as the wildtype protein from the second allele. […] K562 and KG1 were used as a control cell lines containing two MLL wildtype alleles in order to exclude compounds that display general cytotoxic effects.
(§2) MV-4-11 and MOLM14 were cultured in RPMI-1640 (Sigma Aldrich) supplemented with 10% fetal bovine serum (HyClone), 2 mM L-glutamine (Sigma Aldrich) and 50 μg/ml gentamycin (Gibco). K562 were propagated in RPMI-1640 (Sigma Aldrich) supplemented with 20% fetal bovine serum (HyClone), 2 mM L-glutamine (Sigma Aldrich) and 50 μg/ml gentamycin (Gibco). KG1 were cultured in Iscove's MDM (Gibco) supplemented with 20% fetal bovine serum (HyClone), 2 mM L-glutamine (Sigma Aldrich) and 50 μg/ml gentamycin (Gibco).
(§3) In order to assess the anti-proliferative effects, 1,500 MV-4-11, 300 MOLM14, 750 K562 or 1,300 KG1 cells were seeded in 200 μl media per well in 96-well round bottom, ultra-low attachment plates (Costar, catalogue number 7007). Cell seeding numbers were chosen based on growth curves to ensure linear growth throughout the experiment. Test compounds were added at different concentrations and the DMSO content was normalized to 0.3%. Cells were incubated for 8 d at 37° C. and 5% CO2. Spheroid like growth was monitored in real-time by live-cell imaging (IncuCyteZOOM, Essenbio, 4× objective) acquiring one image every four hours for 8 d. Confluence (%) as a measure of spheroid size was determined using an integrated analysis tool.
(§4) In order to determine the cumulative effect of the test compounds over time, the area under the curve (AUC) in a plot of confluence against time was calculated. Confluence at the beginning of the experiment (t=0) was used as baseline for the AUC calculation.
(§5) Absolute IC50 values were calculated according to the following procedure: % Control=(AUC sample/AUC control)*100 AUC control=mean AUC of control values (cells without compound/DMSO as vehicle control)
(§6) A non-linear curve fit was applied using the least squares (ordinary) fit method to the plot of % control versus compound concentration. Based on this, the absolute IC50 value (half maximal inhibitory concentration of the test compound causing an anti-proliferative effect of 50% relative to the vehicle control) was calculated.

[3] = system: MOLM14; assay: Proliferation assay (spheroid assay) MOLM14; type: cell-based, human
Method: as §1, §2, §3, §4, §5, §6

[4] = system: MV-4-11; assay: Proliferation assay (spheroid assay) MV-4-11; type: cell-based, human
Method: as §1, §2, §3, §4, §5, §6

[5] = averaged values over all measurements, read-out: Menin FP assay (IC50 (μM))
[6] = K562 control cell line, averaged values, read-out: Spheroid assay K562 (IC50 (μM))
[7] = Homo sapiens, MOLM-14, MOLM14, averaged values, read-out: Spheroid assay MOLM14 (IC50 (μM))
[8] = Homo sapiens, MV4-11, MV-4-11, averaged values, read-out: Spheroid assay MV-4-11 (IC50 (μM))
[9] = 100 nM menin, 5 nM FITC-MBM1 peptide, individual measurements (not averaged), read-out: (1) Menin FP assay (IC50 (μM))
[10] = MOLM14 (MLL-AF9), 8 d, absolute IC50 from AUC of confluence, individual measurements (not averaged), read-out: (2) Spheroid assay MOLM14 (IC50 (μM))
[11] = MV-4-11 (MLL-AF4), 8 d, absolute IC50 from AUC of confluence, individual measurements (not averaged), read-out: (2) Spheroid assay MV-4-11 (IC50 (μM))

Row | Structure (SMILES) | IC50 [1, 5] | IC50 [2, 6] | IC50 [3, 7] | IC50 [4, 8] | IC50 [1, 9] | IC50 ([2]; 192 h, K562 (MLL wildtype control), 8 d, absolute IC50 from AUC of confluence, individual measurements (not averaged), read-out: (2) Spheroid assay K562 (IC50 (μM))) | IC50 [3, 10] | IC50 [4, 11] | IC50 ([3]; Homo sapiens, MOLM-14, 192 h, MOLM14 (MLL-AF9), 8 d, absolute IC50 from AUC of confluence, individual measurements (not averaged), read-out: (2) Spheroid assay MOLM14 (IC50 (μM)))
1 | FC(F)(F)Cc1cc2c(N3CCC4(CCN(Cc5ccccc5)C4)CC3)ncnc2s1 [Compound 3] | 0.1 µM | ~15 µM | 5.6 µM | 3.8 µM | – | – | – | – | –
2 | FC(F)(F)Cc1cc2c(N3CCC4(CN(Cc5ccnc(Cl)n5)C4)C3)ncnc2s1 [Compound 15] | 0.57 µM | > 15 µM | > 15 µM | 14 µM | – | – | – | – | –
3 | C[C@H]1CN[C@H](C(=O)N2CC3(C2)CN(c2ncnc4sc(CC(F)(F)F)cc24)C3)C1 [Compound 105] | – | > 15 µM | 3.4 µM | 0.67 µM | – | – | – | – | –
4 | FC(F)(F)Cc1cc2c(N3CCC4(CN(Cc5ccc6nccn6c5)C4)C3)ncnc2s1 [Compound 6] | 0.24 µM | > 15 µM | 10.1 µM | 2.4 µM | – | – | – | – | –
5 | O=C([C@@H]1CC2(CC2)CN1)N1CC2(C1)CN(c1ncnc3sc(CC(F)(F)F)cc13)C2 [Compound 87] | – | – | – | – | 0.048 µM | > 15 µM | 8 µM and 2.8 µM and 4.6 µM | 4.1 µM and 0.63 µM and 0.58 µM and 0.68 µM and 0.52 µM | –
6 | FC(F)(F)Cc1cc2c(N3CCC[C@@]4(CCN(Cc5ccccc5)C4)C3)ncnc2s1 (single isomer, unassigned) [Compound 21b] | 0.13 µM | > 15 µM | 4.6 µM | 4.2 µM | – | – | – | – | –
7 | FC(F)(F)Cc1cc2c(N3CCC4(CN(Cc5cn[nH]c5)C4)C3)ncnc2s1 [Compound 29] | – | – | – | – | 0.346 µM | – | > 15 µM | 1.8 µM and > 15 µM and 9.9 µM | 10.8 µM
8 | CC(C)NCCNC(=O)C(c1ccccc1)N1CC2(CCN(c3ncnc4sc(CC(F)(F)F)cc34)C2)C1 (stereo not shown) [Compound 74] | 0.12 µM | – | 6.1 µM | 2 µM | – | – | – | – | –
9 | C[C@H](c1cnn(C)c1)N1CC2(CCN(c3ncnc4sc(CC(F)(F)F)cc34)C2)C1 [Compound 198] | 0.14 µM | – | 12.4 µM | 5.1 µM | – | – | – | – | –
10 | CC(C)[C@@H](C1CNC1)N1CC2(CCN(c3ncnc4sc(CC(F)(F)F)cc34)C2)C1 [Compound 200] | 0.11 µM | – | 10.3 µM | 3.4 µM | – | – | – | – | –
11 | O=C([C@@H]1CC(F)(F)CN1)N1CC2(C1)CN(c1ncnc3sc(CC(F)(F)F)cc13)C2 [Compound 90] | 0.11 µM | – | > 15 µM | 11.1 µM | – | – | – | – | –
12 | OCCn1cccc1CN1CC2(CCN(c3ncnc4sc(CC(F)(F)F)cc34)C2)C1 [Compound 24] | 0.49 µM | – | > 15 µM | 9.1 µM | – | – | – | – | –
13 | FC(F)(F)CCN1CC2(CCN(c3ncnc4sc(CC(F)(F)F)cc34)C2)C1 [Compound 2] | 0.39 µM | > 15 µM | 14.6 µM | 4.9 µM | – | – | – | – | –
14 | CC(C)CN1CC2(CCN(c3ncnc4sc(CC(F)(F)F)cc34)C2)C1 [Compound 13] | 0.042 µM | > 15 µM | 4.2 µM | 0.73 µM | – | – | – | – | –
15 | O=C([C@@H]1CC2(CC2)CN1)N1CC2(CCN(c3ncnc4sc(CC(F)(F)F)cc34)C2)C1 [Compound 86] | 0.092 µM | > 15 µM | 11.3 µM | 2.6 µM | – | – | – | – | –
16 | Cn1cc2c(n1)CCCC2N1CC2(CCN(c3ncnc4sc(CC(F)(F)F)cc34)C2)C1 (stereo not shown) [Compound 133] | 0.12 µM | – | > 15 µM | 2.1 µM | – | – | – | – | –
17 | FC(F)(F)Cc1cc2c(N3CCC4(CN(CC5CC6(CCC6)C5)C4)C3)ncnc2s1 [Compound 22] | 0.069 µM | > 15 µM | 2 µM | 0.55 µM | – | – | – | – | –
18 | CC(c1cnn(C)c1)N1CC2(CCN(c3ncnc4sc(CC(F)(F)F)cc34)C2)C1 (stereo not shown) [Compound 197] | 0.3 µM | – | > 15 µM | 7.3 µM | – | – | – | – | –
19 | FC(F)(F)Cc1cc2c(N3CCC4(CN(Cc5cnccn5)C4)C3)ncnc2s1 [Compound 12] | 0.63 µM | > 15 µM | > 15 µM | > 15 µM | – | – | – | – | –
20 | FC(F)(F)Cc1cc2c(N3CCC4(CN(Cc5ccccc5)C4)C3)ncnc2s1 [Compound 1] | 0.056 µM | > 15 µM | 4.6 µM | 3.7 µM | – | – | – | – | –
21 | FC(F)(F)Cc1cc2c(N3CCCC4(CCN(Cc5ccccc5)C4)C3)ncnc2s1 (racemic) [Compound 18] | 0.14 µM | > 15 µM | 7.7 µM | 3.9 µM | – | – | – | – | –
22 | FC(F)(F)Cc1cc2c(N3CC4(CC(OCc5ccccc5)C4)C3)ncnc2s1 [Compound 26] | 0.16 µM | – | > 15 µM | 10.4 µM | – | – | – | – | –
